What was measured:
Format in all cases: biochemical
human Yes1 enzyme = target: T1, human Yes1 enzyme (Homo sapiens, UniProt P07947); experiment: Yes1 enzyme inhibitory activity (time-resolved fluorometry, biotinylated peptide phosphorylation); details: read-out: YES_IC50
T1 construct: made in house
How it was run: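 Inhibition was expressed against a compound-free control to give IC50, using TR-FRET read-out (Eu-cryptate anti-pTyr antibody, streptavidin-XL665).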

human Lck enzyme = target: T2, human Lck enzyme (Homo sapiens, UniProt P06239); experiment: Lck enzyme inhibitory activity (time-resolved fluorometry, biotinylated peptide phosphorylation); details: read-out: LCK_IC50
T2 construct: purchased Carna Biosciences, Inc. 08-170
T2 sequence (P06239 whole entry): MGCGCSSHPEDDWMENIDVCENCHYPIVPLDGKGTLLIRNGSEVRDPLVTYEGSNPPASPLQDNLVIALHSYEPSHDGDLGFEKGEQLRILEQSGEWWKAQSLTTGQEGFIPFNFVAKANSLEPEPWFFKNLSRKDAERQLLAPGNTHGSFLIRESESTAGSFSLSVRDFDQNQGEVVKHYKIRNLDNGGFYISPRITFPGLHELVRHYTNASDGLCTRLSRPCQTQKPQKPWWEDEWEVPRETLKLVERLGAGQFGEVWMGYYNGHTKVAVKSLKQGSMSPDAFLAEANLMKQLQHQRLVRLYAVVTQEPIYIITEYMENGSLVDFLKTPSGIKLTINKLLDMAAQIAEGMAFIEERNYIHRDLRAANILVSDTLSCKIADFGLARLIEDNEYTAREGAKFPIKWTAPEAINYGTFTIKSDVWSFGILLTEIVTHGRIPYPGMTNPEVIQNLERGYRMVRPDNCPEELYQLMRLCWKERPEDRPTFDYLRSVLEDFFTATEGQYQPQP
How it was run: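 Readout pairs a europium cryptate-labelled anti-phosphotyrosine antibody with XL665-streptavidin, measured by time-resolved fluorescence. IC50 derived from percent inhibition against untreated controls.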

human Src enzyme = target: T3, human Src enzyme (Homo sapiens, UniProt P12931); experiment: Src enzyme inhibitory activity (time-resolved fluorometry, biotinylated peptide phosphorylation); details: read-out: SRC_IC50
T3 construct: purchased Carna Biosciences, Inc. 08-173
T3 sequence (P12931 whole entry): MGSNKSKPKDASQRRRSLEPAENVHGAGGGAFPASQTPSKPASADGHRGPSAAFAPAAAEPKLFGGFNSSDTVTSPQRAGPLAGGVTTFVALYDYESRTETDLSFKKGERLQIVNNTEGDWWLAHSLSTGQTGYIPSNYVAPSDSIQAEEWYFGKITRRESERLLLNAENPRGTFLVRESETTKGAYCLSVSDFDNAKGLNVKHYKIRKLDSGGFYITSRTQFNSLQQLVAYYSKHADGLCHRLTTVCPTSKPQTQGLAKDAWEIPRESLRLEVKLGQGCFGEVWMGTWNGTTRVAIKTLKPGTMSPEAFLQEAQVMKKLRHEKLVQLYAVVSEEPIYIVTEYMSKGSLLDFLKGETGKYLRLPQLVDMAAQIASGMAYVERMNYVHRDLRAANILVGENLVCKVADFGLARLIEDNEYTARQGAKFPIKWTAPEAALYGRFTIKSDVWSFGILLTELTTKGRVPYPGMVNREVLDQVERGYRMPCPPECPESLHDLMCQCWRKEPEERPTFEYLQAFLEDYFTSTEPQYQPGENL
How it was run: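 Compounds were tested for blocking tyrosine phosphorylation of a biotinylated peptide substrate by recombinant human Src. Phosphorylated product was quantified by time-resolved fluorometry using europium cryptate and XL665 conjugates, and IC50 was calculated against the compound-free control.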

T1 sequence (P07947 whole entry): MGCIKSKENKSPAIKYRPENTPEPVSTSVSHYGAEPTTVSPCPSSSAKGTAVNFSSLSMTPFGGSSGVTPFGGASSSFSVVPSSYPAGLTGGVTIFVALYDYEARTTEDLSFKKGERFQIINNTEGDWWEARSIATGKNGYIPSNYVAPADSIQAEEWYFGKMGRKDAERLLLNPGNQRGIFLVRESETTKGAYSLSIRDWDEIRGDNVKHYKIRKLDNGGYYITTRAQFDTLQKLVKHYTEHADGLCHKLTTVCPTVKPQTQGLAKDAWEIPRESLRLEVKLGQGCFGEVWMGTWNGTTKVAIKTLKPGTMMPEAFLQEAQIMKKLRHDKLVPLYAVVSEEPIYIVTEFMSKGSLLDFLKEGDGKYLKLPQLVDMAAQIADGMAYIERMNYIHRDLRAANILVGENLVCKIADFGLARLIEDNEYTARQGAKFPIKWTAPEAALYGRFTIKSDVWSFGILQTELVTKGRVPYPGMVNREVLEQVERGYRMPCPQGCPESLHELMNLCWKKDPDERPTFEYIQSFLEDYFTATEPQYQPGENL

| SMILES | IC50 (human Yes1 enzyme) [nM] | IC50 (human Lck enzyme) [nM] | IC50 (human Src enzyme) [nM] |
| --- | --- | --- | --- |
| Cc1cc2cc(C(=O)c3cnn(-c4c(C)cc(Oc5ccccc5F)cc4F)c3N)[nH]c2cc1NS(=O)(=O)CC(=O)N1CCCC1 [Example 5-1-110, N-[2-[5-amino-1-[2-fluoro-4-(2-fluorophenoxy)-6-methylphenyl]pyrazole-4-carbonyl]-5-methyl-1H-indol-6-yl]-2-oxo-2-pyrrolidin-1-ylethanesulfonamide] | 7.7 | 10 | 68 |
| Cc1cc2cc(C(=O)c3cnn(-c4c(C)cc(Oc5ccccc5F)cc4F)c3N)[nH]c2cc1C1CCN(S(C)(=O)=O)CC1 [Example 5-1-111, [5-amino-1-[2-fluoro-4-(2-fluorophenoxy)-6-methylphenyl]pyrazol-4-yl]-[5-methyl-6-(1-methylsulfonylpiperidin-4-yl)-1H-indol-2-yl] methanone] | 14 | 14 | 46 |
| Cc1cc(Oc2c(F)cccc2F)ncc1-n1ncc(C(=O)c2cc3cc(F)c(N4CCC(N5CCOCC5)CC4)cc3[nH]2)c1N [Example 5-1-112, [5-amino-1-[6-(2,6-difluorophenoxy)-4-methylpyridin-3-yl]pyrazol-4-yl]-[5-fluoro-6-(4-morpholin-4-ylpiperidin-1-yl)-1H-indol-2-yl] methanone] | 0.81 | 1.7 | 26 |
| Cc1cc(Oc2c(F)cccc2F)ncc1-n1ncc(C(=O)c2cc3cc(F)c(NC4CCN(S(C)(=O)=O)CC4)cc3[nH]2)c1N [Example 5-1-113, [5-amino-1-[6-(2,6-difluorophenoxy)-4-methylpyridin-3-yl]pyrazol-4-yl]-[5-fluoro-6-[(1-methylsulfonylpiperidin-4-yl)amino]-1H-indol-2-yl]methanone] | 3.9 | 3.3 | 41 |
| Cc1cc(Oc2c(F)cccc2F)ncc1-n1ncc(C(=O)c2cc3cc(F)c(N4C(=O)NC(C)(C)C4=O)cc3[nH]2)c1N [Example 5-1-114, 3-[2-[5-amino-1-[6-(2,6-difluorophenoxy)-4-methylpyridin-3-yl]pyrazole-4-carbonyl]-5-fluoro-1H-indol-6-yl]-5,5-dimethylimidazolidine-2,4-dione] | 1.7 | 1.1 | 41 |
| Cc1cc(Oc2c(F)cccc2F)ncc1-n1ncc(C(=O)c2cc3cc(F)c(N4C(=O)C(C)(C)NC4=S)cc3[nH]2)c1N [Example 5-1-115, 3-[2-[5-amino-1-[6-(2,6-difluorophenoxy)-4-methylpyridin-3-yl]pyrazole-4-carbonyl]-5-fluoro-1H-indol-6-yl]-5,5-dimethyl-2-sulfanylideneimidazolidin-4-one] | 2.3 | 7 | 52 |
| Cc1cc(Oc2ccccc2F)ccc1-n1ncc(C(=O)c2cc3cc(F)c(NC4CN(S(C)(=O)=O)C4)cc3[nH]2)c1N [Example 5-1-118] | 0.85 | 2.7 | 11 |
| Cc1cc(Oc2ccccc2F)ccc1-n1ncc(C(=O)c2cc3cc(F)c(N4CCOCC4)cc3[nH]2)c1N [Example 5-1-119, [5-amino-1-[4-(2-fluorophenoxy)-2-methylphenyl]pyrazol-4-yl]-(5-fluoro-6-morpholin-4-yl-1H-indol-2-yl)methanone] | 1.8 | 4.8 | 15 |
| Cc1cc2cc(C(=O)c3cnn(-c4cnc(Oc5ccccc5F)cc4C)c3N)[nH]c2cc1NS(=O)(=O)CC(=O)N1CCCC1 [Example 5-1-121, N-[2-[5-amino-1-[6-(2-fluorophenoxy)-4-methylpyridin-3-yl]pyrazole-4-carbonyl]-5-methyl-1H-indol-6-yl]-2-oxo-2-pyrrolidin-1-ylethanesulfonamide] | 1.7 | 14 | 90 |
| Cc1cc2cc(C(=O)c3cnn(-c4cnc(Oc5ccccc5F)cc4C)c3N)[nH]c2cc1C1CCN(S(=O)(=O)C2CC2)CC1 [Example 5-1-123, [5-amino-1-[6-(2-fluorophenoxy)-4-methylpyridin-3-yl]pyrazol-4-yl]-[6-(1-cyclopropylsulfonylpiperidin-4-yl)-5-methyl-1H-indol-2-yl]methanone] | 2 | 33 | 91 |
| Cc1cc(Oc2ccccc2F)ccc1-n1ncc(C(=O)c2cc3cc(N4CCOCC4)c(N4CCC(N5CCOCC5)CC4)cc3[nH]2)c1N [Example 5-1-124, [5-amino-1-[4-(2-fluorophenoxy)-2-methylphenyl]pyrazol-4-yl]-[5-morpholin-4-yl-6-(4-morpholin-4-ylpiperidin-1-yl)-1H-indol-2-yl]methanone] | 0.99 | 10 | 70 |
| Cc1cc(Oc2ccccc2F)ccc1-n1ncc(C(=O)c2cc3cc(F)c(N4CCN(S(C)(=O)=O)CC4)cc3[nH]2)c1N [Example 5-1-125, [5-amino-1-[4-(2-fluorophenoxy)-2-methylphenyl]pyrazol-4-yl]-[5-fluoro-6-(4-methylsulfonylpiperazin-1-yl)-1H-indol-2-yl] methanone] | 0.71 | 9.2 | 33 |
| Cc1cc(Oc2ccccc2F)ccc1-n1ncc(C(=O)c2cc3cc(F)c(N4C(=O)C(C)(C)NC4=S)cc3[nH]2)c1N [Example 5-1-126, 3-[2-[5-amino-1-[4-(2-fluorophenoxy)-2-methylphenyl]pyrazole-4-carbonyl]-5-fluoro-1H-indol-6-yl]-5,5-dimethyl-2-sulfanylideneimidazolidin-4-one] | 0.87 | 15 | 64 |
| Cc1cc(Oc2ccccc2F)ccc1-n1ncc(C(=O)c2cc3cc(F)c(N4CCC(N5CCOCC5)CC4)cc3[nH]2)c1N [Example 5-1-128, [5-amino-1-[4-(2-fluorophenoxy)-2-methylphenyl]pyrazol-4-yl]-[5-fluoro-6-(4-morpholin-4-ylpiperidin-1-yl)-1H-indol-2-yl] methanone] | 0.75 | 3.8 | 23 |
| Cc1cc2cc(C(=O)c3cnn(-c4ccc(Oc5ccccc5F)cc4C)c3N)[nH]c2cc1C1CCN(S(=O)(=O)C2CC2)CC1 [Example 5-1-131, [5-amino-1-[4-(2-fluorophenoxy)-2-methylphenyl]pyrazol-4-yl]-[6-(1-cyclopropylsulfonylpiperidin-4-yl)-5-methyl-1H-indol-2-yl]methanone] | 1.1 | 5.6 | 7.4 |

The next compounds have a lower IC50 (human Yes1 enzyme) than those just listed; values first:

| IC50 (human Yes1 enzyme) [nM] | IC50 (human Lck enzyme) [nM] | IC50 (human Src enzyme) [nM] | SMILES |
| --- | --- | --- | --- |
| 0.51 | 1.6 | 5.2 | Cc1cc(Oc2ccccc2F)ccc1-n1ncc(C(=O)c2cc3cc(N4CCOCC4)c(-n4c(C)cc(=O)[nH]c4=O)cc3[nH]2)c1N [Example 5-1-116, 1-[2-[5-amino-1-[4-(2-fluorophenoxy)-2-methylphenyl]pyrazole-4-carbonyl]-5-morpholin-4-yl-1H-indol-6-yl]-6-methylpyrimidine-2,4-dione] |
| 0.48 | 1.3 | 5 | Cc1cc(Oc2ccccc2F)ccc1-n1ncc(C(=O)c2cc3cc(N4CCOCC4)c(N4C(=O)NC(C)(C)C4=O)cc3[nH]2)c1N [Example 5-1-117, 3-[2-[5-amino-1-[4-(2-fluorophenoxy)-2-methylphenyl]pyrazole-4-carbonyl]-5-morpholin-4-yl-1H-indol-6-yl]-5,5-dimethylimidazolidine-2,4-dione] |
| 0.43 | 6.1 | 23 | Cc1cc(Oc2ccccc2F)ccc1-n1ncc(C(=O)c2cc3cc(N4CCOCC4)c(N4C(=O)C(C)(C)NC4=S)cc3[nH]2)c1N [Example 5-1-120, 3-[2-[5-amino-1-[4-(2-fluorophenoxy)-2-methylphenyl]pyrazole-4-carbonyl]-5-morpholin-4-yl-1H-indol-6-yl]-5,5-dimethyl-2-sulfanylideneimidazolidin-4-one] |
| 0.39 | 4.6 | 30 | COc1cc2cc(C(=O)c3cnn(-c4ccc(Oc5ccccc5F)cc4C)c3N)[nH]c2cc1NS(=O)(=O)CC(=O)N1CCCC1 [Example 5-1-122, N-[2-[5-amino-1-[4-(2-fluorophenoxy)-2-methylphenyl]pyrazole-4-carbonyl]-5-methoxy-1H-indol-6-yl]-2-oxo-2-pyrrolidin-1-ylethanesulfonamide] |
| 0.67 | 4 | 39 | Cc1cc(Oc2ccccc2F)ccc1-n1ncc(C(=O)c2cc3cc(F)c(N4C(=O)NC(C)(C)C4=O)cc3[nH]2)c1N [Example 5-1-127, 3-[2-[5-amino-1-[4-(2-fluorophenoxy)-2-methylphenyl]pyrazole-4-carbonyl]-5-fluoro-1H-indol-6-yl]-5,5-dimethylimidazolidine-2,4-dione] |
| 0.61 | 4.6 | 7.3 | Cc1cc(Oc2ccccc2F)ccc1-n1ncc(C(=O)c2cc3cc(N4CCOCC4)c(NC4CCN(S(C)(=O)=O)CC4)cc3[nH]2)c1N [Example 5-1-129, [5-amino-1-[4-(2-fluorophenoxy)-2-methylphenyl]pyrazol-4-yl]-[6-[(1-methylsulfonylpiperidin-4-yl)amino]-5-morpholin-4-yl-1H-indol-2-yl]methanone] |
| 0.56 | 3.8 | 13 | COc1cc2cc(C(=O)c3cnn(-c4c(C)cc(Oc5ccccc5F)cc4F)c3N)[nH]c2cc1NS(=O)(=O)CC(=O)N1CCCC1 [Example 5-1-130, N-[2-[5-amino-1-[2-fluoro-4-(2-fluorophenoxy)-6-methylphenyl]pyrazole-4-carbonyl]-5-methoxy-1H-indol-6-yl]-2-oxo-2-pyrrolidin-1-ylethanesulfonamide] |
